Series [1] has as its system patients with dyslipidemia. The experiment in a line: Previous clinical trials of pemafibrate (healthy adults, patients with dyslipidemia). The series is classed as in vivo, human. How it is done:
In previous clinical trials, pemafibrate has been administered at doses ranging from 0.1 mg to 1.6 mg per day in healthy adults. Doses up to 0.4 mg per day have been administered in patients with dyslipidemia. […] Increases in LDL-C, both by beta quantification and calculation with the Friedewald equation, were also observed. Based on analysis of efficacy variables, pemafibrate appeared to have a lowering effect on Apo C3 that led to the conversion of VLDL particles to LDL particles, increasing the fraction of larger LDL particles, and reducing TG levels. Similarly, the reduction of Apo C3 led to increased removal of remnant-like particles and lowering of Apo B48. […] The observed increases in Apo A1 and HDL-C resulted from both increased production of Apo A1 in the liver and increased turnover of TG-rich lipoproteins, both of which were associated with a decreased CHD risk.
Because the urinary excretion of pemafibrate is low, as shown by nonclinical and clinical studies, it is expected that pemafibrate can be used safely even in patients with renal impairment. In addition, because the drug has minimal inhibitory effects on major drug metabolizing enzymes in the liver, it is unlikely to cause drug-drug interactions; however, drugs which are strong organic anion-transporting polypeptide (OATP) inhibitors (e.g., cyclosporine and rifampin) do interact with pemafibrate.

The nature of series [2]: Urinary excretion in nonclinical and clinical studies. The series is classed as in vivo.
Series [3] concerns major drug metabolizing enzymes in the liver. The experiment in a line: Inhibition of major drug metabolizing enzymes in the liver. The series is classed as in vitro ADME.

These results are taken from patent publication US11446282B2, “Methods of treating mixed dyslipidemia and hypertriglycertdemia” (Kowa Company, Ltd., priority 2017, dated 2022).

As for `CC[C@@H](Oc1cccc(CN(CCCOc2ccc(OC)cc2)c2nc3ccccc3o2)c1)C(=O)O` [Pemafibrate, (2R)-2-[3-({1,3-benzoxazol-2-yl[3-(4-methoxyphenoxy)propyl]amino}methyl)phenoxy]butanoic acid], the TG change result in series [1] (Japanese and European patients) is reported as “dose-dependent decreases”. Also, the safety profile entry in series [1] (total daily doses 0.1 mg to 0.4 mg, daily or divided twice daily) is on record as “acceptable safety profile”. Moreover, the urinary excretion entry in series [2] is “low”. Further, the “inhibitory effects on major drug metabolizing enzymes in the liver” value in series [3] was “minimal”.
